According to patent US10206867B2, “Alcoholic extract of aerial parts of Solidago virgaurea subsp. alpestris, method of production thereof, and cosmetic or dermatological composition containing it” (CHANEL PARFUMS BEAUTE, priority 2015, dated 2019):

What was measured:
[1] = Antioxidant activity, pholasin ABEL chemiluminescence test, hydroxyl radicals; format: biochemical
Method: (§1) To determine the capacity of Goldenrod for trapping free radicals (hydroxyls, halogenated derivatives, peroxynitrites and superoxide radicals), i.e. its antioxidant capacity, chemiluminescence tests dependent on pholasin ABEL®1 were used (Knight Scientific Limited) according to the manufacturer's instructions. Briefly, various concentrations of ingredients were incubated with pholasin, a well known photoprotein that emits light when it binds to free radicals. D-Mannitol, albumin, vitamin E and L-ascorbic acid were used as positive controls for determining the capacity of the extract for trapping hydroxyl radicals, halogenated derivatives, peroxynitrites and superoxides, respectively.
All the determinations were repeated 5 times and the mean values were determined. The antioxidant capacity of the ingredient is expressed as the percentage reduction of the luminescence peak of Pholasin observed during the assay in the presence and in the absence of the active ingredient ±SD, with the untreated control represented at 0%.

MMP3 = target: T1, MMP3 (Homo sapiens, UniProt P08254); experiment: MMP3 activity by fluorometric assay; format: biochemical; settings: 5 mM; percentage activity relative to untreated control (100%)
T1 construct: purchased Biomol SE-109
T1 sequence (P08254 100-272 limits assumed): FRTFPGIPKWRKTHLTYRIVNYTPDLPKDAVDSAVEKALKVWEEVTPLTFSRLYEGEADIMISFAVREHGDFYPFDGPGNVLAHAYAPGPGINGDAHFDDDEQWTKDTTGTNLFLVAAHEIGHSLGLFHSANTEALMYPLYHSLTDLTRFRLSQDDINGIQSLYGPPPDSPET
Method: (§2) To evaluate the effect of Goldenrod on the activity of MMP3 and MMP9, the enzymes (Biomol SE-109 and SE-244, respectively) were incubated with different concentrations of Goldenrod, each concentration in quintuplicate. The enzymatic reaction was induced by adding the fluorescent substrate specific to each MMP enzyme, dissolved in DMSO (Bachem H-2300, M-2055). The enzymatic reaction was monitored by spectrophotometry for one hour and the fluorescence was measured after excitation/emission at wavelengths of 360/460 nm for MMP3, or 320/405 nm for MMP9. The results are expressed as the mean of the replicates ±SD and are shown in […] activity of the MMPs relative to the untreated control, which represents 100%. As control, EDTA was used for inhibiting the activity of the MMPs.

MMP9 = target: T2, MMP9 (Homo sapiens, UniProt P14780); experiment: MMP9 activity by fluorometric assay; format: biochemical; settings: 5 mM; percentage activity relative to untreated control (100%)
T2 construct: purchased Biomol SE-244
T2 sequence (P14780 107-444 limits assumed): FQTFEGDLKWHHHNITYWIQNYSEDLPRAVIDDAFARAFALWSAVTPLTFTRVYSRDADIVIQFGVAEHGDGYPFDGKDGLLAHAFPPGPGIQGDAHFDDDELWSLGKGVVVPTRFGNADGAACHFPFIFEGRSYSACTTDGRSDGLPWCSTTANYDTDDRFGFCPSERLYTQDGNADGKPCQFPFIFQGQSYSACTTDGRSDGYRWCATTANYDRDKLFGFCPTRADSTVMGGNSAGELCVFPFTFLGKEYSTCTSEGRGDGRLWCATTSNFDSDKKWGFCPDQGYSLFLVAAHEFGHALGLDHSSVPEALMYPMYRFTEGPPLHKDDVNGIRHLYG
Method: as §2

[2] = Antioxidant activity, pholasin ABEL chemiluminescence test, superoxides; format: biochemical
Method: as §1, with “respectively. […] The antioxidant capacity of the ingredient is expressed as the percentage reduction of the luminescence peak of Pholasin observed during the assay in the presence and in the absence of the active ingredient ±SD, with the untreated control represented at 0%.” for “respectively.”

[3] = tested on: Primary human keratinocytes (KC); experiment: Primary human keratinocytes (KC) under Paraquat stress: cell counts and qPCR of MMP1, p16INK4a; format: cell-based; settings: for Mean number of cells counted, corrected for the cell division factor: 37500 cells seeded on day 0
Method: Primary human keratinocytes derived from neonatal foreskin of individual donors (KC) were purchased from CellSystems (Troisdorf, Germany) and cultured in a KC growth medium (KGM, Clonetics, Gaithersburg, USA) supplemented with 0.1 ng/ml of recombinant human EGF, 5 μg/ml insulin, 0.5 μg/ml of hydrocortisone, 0.4% of bovine pituitary extract, 50 μg/ml of gentamicin and 50 ng/ml of amphotericin B. The RNA was isolated using the RNeasy 96 system ([…]), and 900 ng of total RNA was reverse-transcribed with the iScript cDNA Synthesis Kit (Biorad). qPCR was performed using the LightCycler 480 and the LightCycler 480 SYBR Green I Master (Roche, Basle, Switzerland). Expression of the target genes was normalized relative to expression of β-2 microglobulin. The sequences of the primers are as follows (5′-3′): B2Mf […] (SEQ ID NO:11); B2Mr: […] (SEQ ID NO:12);
The cells are seeded for the stress experiments on day 0 at 1500 cells/cm^2 and treated on days 2, 5 and 6 with Paraquat (PQ) (80 μm) for 24 hours. Treatment with Goldenrod was carried out on days 1 and 4 on untreated cells or cells treated with Paraquat.

For `OC[C@@H](O)[C@@H](O)[C@H](O)[C@H](O)CO` [D-Mannitol], the Mean % inhibition ([1]; 0.8 mM) was 59.9 ± 3.6%, the Mean % inhibition ([1]; 1 mM) was 76.1 ± 14% and the Mean % inhibition ([1]; 2 mM) was 82.6 ± 14.8%. For the same compound, the Mean % inhibition ([1]; 4 mM) was 92.6 ± 4.7% and the Mean % inhibition ([1]; 6 mM) was 95.1 ± 0.3%.

With `O=C(O)CN(CCN(CC(=O)O)CC(=O)O)CC(=O)O` [EDTA] the “Enzyme activity MMP3” value (MMP3) was 4.3 ± 5.3% and the “Enzyme activity MMP9” value (MMP9) was 0 ± 0.9%.

Work on `O=C1O[C@H]([C@@H](O)CO)C(O)=C1O` [L-ascorbic acid] yielded a Mean % inhibition ([2]; 10 μmol/L) of 26.4 ± 3.5%, a Mean % inhibition ([2]; 20 μmol/L) of 43.9 ± 1.4% and a Mean % inhibition ([2]; 40 μmol/L) of 64.8 ± 0.8%. For the same compound, the Mean % inhibition ([2]; 60 μmol/L) was 75.3 ± 1% and the Mean % inhibition ([2]; 80 μmol/L) was 82.4 ± 1.8%.

For `C[n+]1ccc(-c2cc[n+](C)cc2)cc1` [Paraquat], the “Mean number of cells counted, corrected for the cell division factor” value ([3]; D3, single treatment) was 405,000 cells, the “Mean number of cells counted, corrected for the cell division factor” value ([3]; D7, single treatment) was 546,666 cells and the “Expression of MMP1” value ([3]; treatment with Paraquat alone) was “induces”. For the same compound, the “Expression of p16INK4a” value ([3]; treatment with Paraquat alone) was “induces”.
